Measured values: patent EP0396024A2, “Esters, medicaments containing them and preparation of these esters and medicaments” (Grünenthal GmbH, priority 1989, dated 1990)

Legend:
Ratten = assay: Mean arterial blood pressure in pentobarbital-anaesthetised rats, 10 min i.v. infusion as lipid emulsion; assay type: in vivo; details: mean arterial pressure in % of baseline, mean of 4 rats
Procedure: So wurde an durch intraperitoneale Injektion von 60 mg/kg Natriumpentobarbital narkotisierten Ratten über einen Carotis-Katheter mit Hilfe eines Druckübermittlers der Blutdruck überwacht. Den Tieren (in Gruppen von je 4 Tieren) wurden dann für jeweils 10 Minuten über einen in die rechte vena femoralis eingesetzten Katheter • 1) 10,0 µg/kg/min der Verbindung A (R₁ = H) • 2) 9,6 µg/kg/min der Verbindung B (R₁ = H) • 3) 6,2 µg/kg/min des Esters der Formel I (X = 0) bzw. • 4) 10,5 µg/kg/min des Esters der Formel I (X = CH₂) injiziert, wobei diese Verbindungen in Form einer Lipidemulsion (vgl. Mizushima et al. J. Pharm. Pharmacol. 34 (1982) 49 - 50 und Ann. Rheum. Dis. 41 (1982) 263 - 267) zur Anwendung kamen. Dabei ergaben sich fol gende Werte des mittleren arteriellen Blutdrucks (in % des Ausgangswertes; jeweils als Mittelwert für die Tiere einer Gruppe): […]

Hunden = details: dogs; potency in % of the free acid; cited from earlier work
[1] = tested on: durch ADP induzierten Blutplättchenaggregation; details: rat plasma; in % of the effect of the free acid; cited from earlier work
[2] = tested on: menschlichen Blutplättchen; details: aggregation induced by various agents; compared with natural Prostacyclin; cited from earlier work
[3] = tested on: ADP-induzierten Thrombozytenaggregation; assay: ADP-induced platelet aggregation (platelet count fall) in the urethane-anaesthetised rat after oral dosing; assay type: in vivo, Ratte; details: 100 µg/kg ADP i.v. bolus
Procedure: Zur Bestimmung der ADP-induzierten Thrombozytenaggregation an der Urethan-narkotisierten Ratte nach oraler Gabe der Vergleichssubstanzen wurde den Tieren ein Carotis-Katheter eingesetzt und über diesen kontinuierlich Blut entnommen. Nach Zumischen von Natriumzitrat wurde in einem Technicon-Thrombocounter die Thrombozytenzahl bestimmt. 15 Minuten und unmittelbar vor der Gabe der Prüfsubstanz sowie 15, 30, 45 und 60 min. nach der Prüfsubstanzgabe wurden über die vena jugularis jeweils 100 µg/kg ADP als Bolus injiziert und der Thrombozytenabfall unter der ADP-Injektion bestimmt. Der Mittelwert der beiden Werte vor der Prüfsubstanzgabe wurde als Ausgangs-Kontrollwert genommen und die Werte nach Prüfsubstanzgabe als %-Änderung gegenüber diesem Wert bestimmt.

[4] = 15 min after oral dose of 10 mg/kg
[5] = 30 min after oral dose of 10 mg/kg
[6] = 45 min after oral dose of 10 mg/kg
[7] = 60 min after oral dose of 10 mg/kg

O=C(O)c1cccc(/C=C2/C[C@@H]3[C@@H](/C=C/[C@@H](O)C4CCCCC4)[C@H](O)C[C@@H]3O2)c1 (relative stereo) [A (R₁ = H), 2-Oxa-3Z-(m-carboxybenzyliden)-6β-(3′-S-hydroxy-3′cyclohexyl-1′E-propenyl)-7α-hydroxy-cis-bicyclo[3.3.0] octan, reference compound]
Relativer Blutdruck (%) Minuten nach Injektionsbeginn (Ratten; 5 min, 10,0 µg/kg/min i.v. for 10 min): 64% | Relativer Blutdruck (%) Minuten nach Injektionsbeginn (Ratten; 10 min, 10,0 µg/kg/min i.v. for 10 min): 65% | Relativer Blutdruck (%) Minuten nach Injektionsbeginn (Ratten; 20 min, 10,0 µg/kg/min i.v. for 10 min): 94%

CCCCCC(O)/C=C/C1C(O)CC2CC(=CCCCC(=O)OC)CC21 (stereo not drawn) [Methylester der (5EZ,13E)(9α,11α,15α)-6,9-methano-11,15-dihydroxyprosta-5,13-diensäure]
Wirkung auf den Blutdruck, relativ zur freien Säure (Hunden): 50 - 60% | Hemmung der durch ADP induzierten Blutplättchenaggregation, Wirkung relativ zur freien Säure [1]: ~80%

CCCCCC(O)C#CC1C(O)CC2OC(=CCCCC(=O)OC)CC21 (stereo not drawn) [13,14-Dehydroprostacyclinmethylester]
Aggregationshemmung von menschlichen Blutplättchen [2]: ähnlich wirksam

CC(C)(C)C(=O)OCOC(=O)c1cccc(/C=C2/C[C@@H]3[C@@H](/C=C/[C@@H](O)C4CCCCC4)[C@H](O)C[C@@H]3O2)c1 [I (X = 0), 2-Oxa-3Z-(m-pivaloyloxymethyloxycarbonyl-benzyliden)-6β-(3′S-hydroxy-3′-cyclohexyl-1′E-propenyl)-7α-hydroxy-cis-bicyclo[3.3.0]octan]
Relativer Blutdruck (%) Minuten nach Injektionsbeginn (Ratten; 5 min, 6,2 µg/kg/min i.v. for 10 min): 58% | Relativer Blutdruck (%) Minuten nach Injektionsbeginn (Ratten; 10 min, 6,2 µg/kg/min i.v. for 10 min): 62% | Relativer Blutdruck (%) Minuten nach Injektionsbeginn (Ratten; 20 min, 6,2 µg/kg/min i.v. for 10 min): 81%

CC(C)(C)C(=O)OCOC(=O)c1cccc(/C=C2\C[C@H]3C[C@@H](O)[C@H](/C=C/[C@@H](O)C4CCCCC4)[C@H]3C2)c1 [I(X=CH₂), 3E-(m-Pivaloyloxymethyloxycarbonyl-benzyliden)-6β-(3′S-hydroxy-3′-cyclohexyl-1′E-propenyl)-7α hydroxy-cis-bicyclo[3.3.0]octan]
Relativer Blutdruck (%) Minuten nach Injektionsbeginn (Ratten; 5 min, 10,5 µg/kg/min i.v. for 10 min): 62% | Relativer Blutdruck (%) Minuten nach Injektionsbeginn (Ratten; 10 min, 10,5 µg/kg/min i.v. for 10 min): 51% | Relativer Blutdruck (%) Minuten nach Injektionsbeginn (Ratten; 20 min, 10,5 µg/kg/min i.v. for 10 min): 69% | Thrombozytenaggregationshemmung in % des Ausgangskontrollwertes nach Minuten [3, 4]: 24,0±3,0% | Thrombozytenaggregationshemmung in % des Ausgangskontrollwertes nach Minuten ([3]; 15 min after oral dose of 100 mg/kg): 59,4±3,0% | Thrombozytenaggregationshemmung in % des Ausgangskontrollwertes nach Minuten [3, 5]: 28,1±3,8% | Thrombozytenaggregationshemmung in % des Ausgangskontrollwertes nach Minuten ([3]; 30 min after oral dose of 100 mg/kg): 63,3±6,8% | Thrombozytenaggregationshemmung in % des Ausgangskontrollwertes nach Minuten [3, 6]: 29,1±3,9% | Thrombozytenaggregationshemmung in % des Ausgangskontrollwertes nach Minuten ([3]; 45 min after oral dose of 100 mg/kg): 68,1±2,0% | Thrombozytenaggregationshemmung in % des Ausgangskontrollwertes nach Minuten [3, 7]: 30,3±4,6% | Thrombozytenaggregationshemmung in % des Ausgangskontrollwertes nach Minuten ([3]; 60 min after oral dose of 100 mg/kg): 71,0±4,4%

O=C(O)c1cccc(/C=C2\C[C@H]3C[C@@H](O)[C@H](/C=C/[C@@H](O)C4CCCCC4)[C@H]3C2)c1 (relative stereo) [B(R₁=H), 3E-(m-Carboxybenzyliden)-6β-(3′S-hydroxy-3′-cyclohexyl-1′E-propenyl)-7α-hydroxy-cis-bicyclo-[3.3.0]octan, reference compound]
Relativer Blutdruck (%) Minuten nach Injektionsbeginn (Ratten; 5 min, 9,6 µg/kg/min i.v. for 10 min): 80% | Relativer Blutdruck (%) Minuten nach Injektionsbeginn (Ratten; 10 min, 9,6 µg/kg/min i.v. for 10 min): 84% | Relativer Blutdruck (%) Minuten nach Injektionsbeginn (Ratten; 20 min, 9,6 µg/kg/min i.v. for 10 min): 105% | Thrombozytenaggregationshemmung in % des Ausgangskontrollwertes nach Minuten [3, 4]: 68,9±6,8% | Thrombozytenaggregationshemmung in % des Ausgangskontrollwertes nach Minuten [3, 5]: 55,1±6,7% | Thrombozytenaggregationshemmung in % des Ausgangskontrollwertes nach Minuten [3, 6]: 51,8±6,4% | Thrombozytenaggregationshemmung in % des Ausgangskontrollwertes nach Minuten [3, 7]: 38,1±6,3%
